Test results taken from article PMC9917560, “Design, Synthesis and Antimicrobial Evaluation of New N-(1-Hydroxy-1,3-dihydrobenzo[c][1,2]oxaborol-6-yl)(hetero)aryl-2-carboxamides as Potential Inhibitors of Mycobacterial Leucyl-tRNA Synthetase” (International Journal of Molecular Sciences, 2023).
Values after ≈ are worked out from the molar mass of the structure shown. Read-outs that look alike come from different tables or passages of the source.

What was measured:
[1] = test system: Trichophyton interdigitale CCM 8377 (ATCC 9533); assay: Antifungal microdilution broth (EUCAST); type: cell-based; conditions: Trichophyton interdigitale, read-out: MIC Trichophyton interdigitale
[2] = test system: methicillin-resistant Staphylococcus aureus subsp. aureus (MRSA) CCM 4750 (ATCC 43300); assay: microbe, parasite or virus in culture; type: cell-based; conditions: read-out: MIC Methicillin-resistant Staphylococcus aureus subsp. aureus
[3] = test system: Mycolicibacterium aurum DSM 43,999 (ATCC 23366); assay: Antimycobacterial microdilution (resazurin) vs M. aurum; type: cell-based; conditions: read-out: MIC M. aurum
[4] = test system: Escherichia coli CCM 3954 (ATCC 25922); assay: Antibacterial microdilution broth (EUCAST); type: cell-based; conditions: Escherichia coli, read-out: MIC Escherichia coli
HepG2 cell line = assay: Cytotoxicity screening, CellTiter 96 assay; conditions: for IC50: Homo sapiens, HepG2, 24 h, read-out: IC50 HepG2
[5] = test system: Acinetobacter baumannii DSM 30007 (ATCC 19606); assay: Antibacterial microdilution broth (EUCAST); type: cell-based; conditions: read-out: MIC Acinetobacter baumannii
[6] = test system: Mycobacterium tuberculosis H37Rv CNCTC My 331/88 (ATCC 27294); assay: Microplate Alamar Blue assay vs Mtb H37Rv; type: cell-based; conditions: Mycobacterium tuberculosis
[7] = test system: Klebsiella pneumoniae CCM 4415 (ATCC 10031); assay: Antibacterial microdilution broth (EUCAST); type: cell-based; conditions: Klebsiella pneumoniae, read-out: MIC Klebsiella pneumoniae
[8] = test system: Staphylococcus aureus subsp. aureus CCM 4223 (ATCC 29213); assay: Antibacterial microdilution broth (EUCAST); type: cell-based; conditions: read-out: MIC Staphylococcus aureus subsp. aureus
[9] = test system: Mycobacterium kansasii DSM 44,162 (ATCC 12478); assay: Antimycobacterial microdilution (resazurin) vs M. kansasii; type: cell-based; conditions: read-out: MIC M. kansasii
[10] = test system: Candida albicans CCM 8320 (ATCC 24433); assay: Antifungal microdilution broth (EUCAST); type: cell-based; conditions: Candida albicans, read-out: MIC Candida albicans
[11] = test system: Staphylococcus epidermidis CCM 4418 (ATCC 12228); assay: Antibacterial microdilution broth (EUCAST); type: cell-based; conditions: read-out: MIC Staphylococcus epidermidis
[12] = test system: Mycobacterium tuberculosis H37Ra ITM-M006710 (ATCC 9431); assay: Antimycobacterial microdilution (resazurin) vs Mtb H37Ra; type: cell-based
[13] = test system: Candida krusei CCM 8271 (ATCC 6258); assay: Antifungal microdilution broth (EUCAST); type: cell-based; conditions: Pichia kudriavzevii, read-out: MIC Candida krusei
[14] = test system: Mycolicibacterium smegmatis DSM 43,465 (ATCC 607); assay: Antimycobacterial microdilution (resazurin) vs M. smegmatis; type: cell-based; conditions: Middlebrook 7H9, resazurin, read-out: MIC M. smeg.
[15] = test system: Enterococcus faecalis CCM 4224 (ATCC 29212); assay: Antibacterial microdilution broth (EUCAST); type: cell-based; conditions: read-out: MIC Enterococcus faecalis
[16] = test system: Pseudomonas aeruginosa CCM 3955 (ATCC 27853); assay: Antibacterial microdilution broth (EUCAST); type: cell-based; conditions: read-out: MIC Pseudomonas aeruginosa
[17] = test system: Candida tropicalis CCM 8264 (ATCC 750); assay: Antifungal microdilution broth (EUCAST); type: cell-based; conditions: read-out: MIC Candida tropicalis
[18] = test system: Aspergillus flavus CCM 8363; assay: Antifungal microdilution broth (EUCAST); type: cell-based; conditions: Aspergillus flavus, read-out: MIC Aspergillus flavus
[19] = test system: Aspergillus fumigatus ATCC 204305; assay: Antifungal microdilution broth (EUCAST); type: cell-based; conditions: Aspergillus fumigatus, read-out: MIC Aspergillus fumigatus
[20] = test system: Lichtheimia corymbifera CCM 8077; assay: Antifungal microdilution broth (EUCAST); type: cell-based; conditions: Lichtheimia corymbifera, read-out: MIC Lichtheimia corymbifera
[21] = test system: Candida parapsilosis CCM 8260 (ATCC 22019); assay: Antifungal microdilution broth (EUCAST); type: cell-based; conditions: Lodderomyces parapsilosis, read-out: MIC Candida parapsilosis
[22] = test system: Mycobacterium avium DSM 44,156 (ATCC 25291); assay: Antimycobacterial microdilution (resazurin) vs M. avium; type: cell-based; conditions: Mycobacterium avium, Middlebrook 7H9, resazurin; read-out: MIC M. avium

For O=C(Nc1ccc2c(c1)B(O)OC2)c1ccc(Cl)s1 [Compound 15, 5-chloro-N-(1-hydroxy-1,3-dihydrobenzo[c][1,2]oxaborol-6-yl)thiophene-2-carboxamide], which MIC ([1]; 72h incubation) is on record?
The MIC was > 500 µM.

What about the MIC ([1]; 120h incubation) of the same compound?
Its MIC is > 500 µM.

And the MIC ([2]; 24 h)?
Its MIC is 500 µM (≈ 147 µg/mL).

What about the MIC ([2]; 48 h) of the same compound?
The MIC was 500 µM (≈ 147 µg/mL).

And the MIC [3]?
The MIC was 53.2 µM (≈ 15.6 µg/mL).

What about the MIC ([4]; 24h incubation) of the same compound?
Its MIC is > 500 µM.

And the MIC ([4]; 48h incubation)?
Its MIC is > 500 µM.

What about the IC50 (HepG2 cell line) of the same compound?
Its IC50 is 210 µM.

And the MIC ([5]; 24h incubation)?
The MIC was > 500 µM.

What about the MIC ([5]; 48h incubation) of the same compound?
The MIC was > 500 µM.

And the MIC ([6]; pH 6.6, MABA, Middlebrook 7H9 pH 6.6, recalculated from µg/mL, read-out: MIC Mtb H37Rv)?
The MIC was 42.6 µM (≈ 12.5 µg/mL).

And the MIC ([7]; 24h incubation)?
Its MIC is > 500 µM.

What about the MIC ([7]; 48h incubation) of the same compound?
The MIC was > 500 µM.

What about the MIC ([8]; 24h incubation) of the same compound?
Its MIC is 500 µM (≈ 147 µg/mL).

And the MIC ([8]; 48h incubation)?
Its MIC is 500 µM (≈ 147 µg/mL).

What about the MIC ([9]; Middlebrook 7H9, resazurin) of the same compound?
Its MIC is 106 µM (≈ 31.3 µg/mL).

And the MIC ([10]; 24h incubation)?
Its MIC is > 500 µM.

And the MIC ([10]; 48h incubation)?
Its MIC is > 500 µM.

And the MIC ([11]; 24h incubation)?
The MIC was 500 µM (≈ 147 µg/mL).

And the MIC ([11]; 48h incubation)?
Its MIC is 500 µM (≈ 147 µg/mL).

And the MIC ([12]; Middlebrook 7H9, resazurin, recalculated from µg/mL, read-out: MIC Mtb H37Ra)?
Its MIC is 53.2 µM (≈ 15.6 µg/mL).

What about the MIC ([13]; 24h incubation) of the same compound?
Its MIC is > 500 µM.

What about the MIC ([13]; 48h incubation) of the same compound?
Its MIC is > 500 µM.

What about the MIC [14] of the same compound?
The MIC was 852 µM (≈ 250 µg/mL).

And the MIC ([15]; 24h incubation)?
The MIC was > 500 µM.

What about the MIC ([15]; 48h incubation) of the same compound?
Its MIC is > 500 µM.

What about the MIC ([16]; 24h incubation) of the same compound?
The MIC was > 500 µM.

What about the MIC ([16]; 48h incubation) of the same compound?
Its MIC is > 500 µM.

What about the MIC ([17]; 24h incubation) of the same compound?
The MIC was > 500 µM.

What about the MIC ([17]; 48h incubation) of the same compound?
The MIC was > 500 µM.

And the MIC ([18]; CCM8363, 24h incubation)?
The MIC was > 500 µM.

And the MIC ([18]; CCM8363, 48h incubation)?
The MIC was > 500 µM.

And the MIC ([19]; ATCC204305, 24h incubation)?
Its MIC is > 500 µM.

And the MIC ([19]; ATCC204305, 48h incubation)?
Its MIC is > 500 µM.

What about the MIC ([20]; CCM8077, 24h incubation) of the same compound?
Its MIC is > 500 µM.

What about the MIC ([20]; CCM8077, 48h incubation) of the same compound?
The MIC was > 500 µM.

What about the MIC ([21]; 24h incubation) of the same compound?
Its MIC is > 500 µM.

What about the MIC ([21]; 48h incubation) of the same compound?
The MIC was > 500 µM.

And the MIC [22]?
Its MIC is 426 µM (≈ 125 µg/mL).

What about the melting point of the same compound?
Its melting point is 234.9 to 237.1 °C.

Which MIC ([1]; 72 h) does the source give for Nc1ncc(Cl)nc1C(=O)Nc1ccc2c(c1)B(O)OC2 [Compound 7, 3-amino-6-chloro-N-(1-hydroxy-1,3-dihydrobenzo[c][1,2]oxaborol-6-yl)pyrazine-2-carboxamide] here?
Its MIC is > 125 µM.

And the MIC ([1]; 120 h)?
The MIC was > 125 µM.

What about the MIC ([2]; 24 h) of the same compound?
Its MIC is > 125 µM.

And the MIC ([2]; 48 h)?
Its MIC is > 125 µM.

And the MIC [3]?
The MIC was > 1850 µM.

And the MIC ([4]; 24 h)?
The MIC was > 125 µM.

And the MIC ([4]; 48 h)?
Its MIC is > 125 µM.

And the IC50 (HepG2 cell line)?
Its IC50 is > 100 µM.

And the “toxicity to HepG2 up to highest tested concentration” value (HepG2 cell line; tested up to 500 µM (2, 3), 250 µM (12, 17), 100 µM (6, 7, 11) because of solubility)?
The value was “non-toxic”.

What about the MIC ([5]; 24 h) of the same compound?
The MIC was > 125 µM.

And the MIC ([5]; 48 h)?
Its MIC is > 125 µM.

And the MIC ([6]; pH 6.6, read-out: MIC Mtb H37Rv, MABA, Middlebrook 7H9 pH 6.6, recalculated from µg/mL)?
The MIC was > 328 µM.

What about the MIC ([7]; 24 h) of the same compound?
The MIC was > 125 µM.

And the MIC ([7]; 48 h)?
Its MIC is > 125 µM.

And the MIC ([8]; 24 h)?
Its MIC is > 125 µM.

And the MIC ([8]; 48 h)?
Its MIC is > 125 µM.

What about the MIC [9] of the same compound?
The MIC was > 1850 µM.

And the MIC ([10]; 24 h)?
Its MIC is > 125 µM.

And the MIC ([10]; 48 h)?
The MIC was > 125 µM.

And the MIC ([11]; 24 h)?
Its MIC is > 125 µM.

And the MIC ([11]; 48 h)?
The MIC was > 125 µM.

And the MIC ([12]; read-out: MIC Mtb H37Ra, Middlebrook 7H9, resazurin, recalculated from µg/mL)?
Its MIC is > 1850 µM.

And the MIC ([13]; 24 h)?
Its MIC is > 125 µM.

And the MIC ([13]; 48 h)?
The MIC was > 125 µM.

What about the MIC [14] of the same compound?
The MIC was 411 µM (≈ 125 µg/mL).

And the MIC ([15]; 24 h)?
Its MIC is > 125 µM.

What about the MIC ([15]; 48 h) of the same compound?
The MIC was > 125 µM.

What about the MIC ([16]; 24 h) of the same compound?
The MIC was > 125 µM.

What about the MIC ([16]; 48 h) of the same compound?
The MIC was > 125 µM.

What about the MIC ([17]; 24 h) of the same compound?
Its MIC is > 125 µM.

What about the MIC ([17]; 48 h) of the same compound?
Its MIC is > 125 µM.

What about the MIC ([18]; CCM8363, 24 h) of the same compound?
The MIC was > 125 µM.

And the MIC ([18]; CCM8363, 48 h)?
Its MIC is > 125 µM.

What about the MIC ([19]; ATCC204305, 24 h) of the same compound?
Its MIC is > 125 µM.

And the MIC ([19]; ATCC204305, 48 h)?
The MIC was > 125 µM.

And the MIC ([20]; CCM8077, 24 h)?
Its MIC is > 125 µM.

What about the MIC ([20]; CCM8077, 48 h) of the same compound?
Its MIC is > 125 µM.

What about the MIC ([21]; 24 h) of the same compound?
Its MIC is > 125 µM.

What about the MIC ([21]; 48 h) of the same compound?
Its MIC is > 125 µM.

And the MIC [22]?
Its MIC is 411 µM (≈ 125 µg/mL).

And the melting point?
Its melting point is 242.9 to 244.4 °C.
